The subject of experiment [1] is NCI-H1975 (EGFR-L858R-T790M) cells. Briefly: Inhibitory activity on proliferation of NCI-H1975 (EGFR-L858R-T790M) cells (CTG, 72 h). The experiment is classed as cell-based. The settings on record: Homo sapiens. In outline: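 Cells plated at 1000/well (NCI-H1975, RPMI1640+10% FBS) or 3000/well (A431, DMEM+10% FBS), dosed next day with compounds (0.1% DMSO final) for 72 h at 37 °C, 5% CO2. Viability by CTG luminescence, normalised to vehicle control; IC50 from nonlinear-regression dose-survival curves.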

In another experiment the test system is A431 (EGFR-WT) cells. In words: Inhibitory activity on proliferation of A431 (EGFR-WT) cells (CTG, 72 h). The class given is cell-based. The note with it: Homo sapiens, A-431. The protocol:
NCI-H1975 (EGFR-L858R-T790M) and A431 (EGFR-WT) cells were purchased from ATCC and cultured in an incubator at 37° C. with 5% CO2, and the culture mediums were RPMI1640+10% FBS and DMEM+10% FBS, respectively. On the first day, NCI-H1975 (EGFR-L858R-T790M) and A431 (EGFR-WT) cells in the logarithmic phase were collected, and viable cells were counted using an automatic cell analyzer (countstar). The cell suspensions were adjusted with the culture mediums and plated on a 96-well cell culture plate at 1000 cells/well for NCI-H1975 (EGFR-L858R-T790M) cells and at 3000 cells/well for A431 cells. The next day, the culture mediums were aspirated, and 90 μL of fresh culture mediums and 10 μL of the compounds at different concentrations were added to each well, wherein the final concentration of DMSO in each well was 0.1%. The plate was cultured in the incubator at 37° C. with 5% CO2 for 72 hours. After 72 hours of drug treatment, 50 μL of CTG solution (promega, G7572), which was already pre-melted and equilibrated to room temperature, was added to each well, and the mixtures were uniformly mixed for 2 min using a microplate shaker. The plate was placed at room temperature for 10 min, and then […] signal values were measured using a microplate reader (PHERAstar FSX).
Surviving cells % was calculated based on Vsample/Vvehicle control×100%, wherein Vsample was the readout of the drug-treated group, and Vvehicle control was the average value of the vehicle control group. Using the origin 9.2 software and nonlinear regression model, S-shaped dose-survival curves were plotted, and IC50 values were calculated.

The mark [2] stands for this setting: read-out: IC50 (value in brackets).

Read-outs that look alike come from different tables or passages of the source.

Turning to `COc1cc(N2CCN(CC3CCN(c4ccc5c(c4)C(=O)N(C4CCC(=O)NC4=O)C5=O)CC3)CC2)c(-c2cnn(C)c2)cc1Nc1ncc(Br)c(Nc2ccc(C3CC3)cc2P(C)(C)=O)n1` (stereo not shown) [Compound 125, 5-(4-((4-(4-((5-bromo-4-((4-cyclopropyl-2-(dimethylphosphoryl)phenyl)amino)pyrimidin-2-yl)amino)-5-methoxy-2-(1-methyl-1H-pyrazol-4-yl)phenyl)piperazin-1-yl)methyl)piperidin-1-yl)-2-(2,6-dioxopiperidin-3-yl)isoindoline-1,3-dione], the IC50 in experiment [1] (read-out: IC50 (class symbol)) was under 100 nM; in experiment [1] (setting [2]) it was 23 nM; with A431 (EGFR-WT) cells, at least 10000 nM.
For the molecule `COc1cc(N2CCN(C3CCN(CC4CCN(c5cc6c(cc5F)C(=O)N(C5CCC(=O)NC5=O)C6=O)CC4)CC3)CC2)c(-c2cnn(C)c2)cc1Nc1ncc(Cl)c(Nc2ccc(-c3ccccc3)cc2P(C)(C)=O)n1` (stereo not shown) [Compound 50, 5-(4-((4-(4-(4-((5-chloro-4-((3-(dimethylphosphoryl)-[1,1′-biphenyl]-4-yl)amino)pyrimidin-2-yl)amino)-5-methoxy-2-(1-methyl-1H-pyrazol-4-yl)phenyl)piperazin-1-yl)piperidin-1-yl)methyl)piperidin-1-yl)-2-(2,6-dioxopiperidin-3-yl)-6-fluoroisoindoline-1,3-dione], the IC50 in experiment [1] (read-out: IC50 (class symbol)) is 100 to 500 nM; in experiment [1] (setting [2]) it was 133 nM; with A431 (EGFR-WT) cells, at least 10000 nM.
For `COc1cc(N2CCN(C3CCC4(CC3)CCN(c3ccc5c(c3)C(=O)N(C3CCC(=O)NC3=O)C5=O)CC4)CC2)c(-c2cnn(C)c2)cc1Nc1ncc(Br)c(Nc2ccc(-c3ccccc3)cc2P(C)(C)=O)n1` (stereo not shown) [Compound 85, 5-(9-(4-(4-((5-bromo-4-((3-(dimethylphosphoryl)-[1,1′-biphenyl]-4-yl)amino)pyrimidin-2-yl)amino)-5-methoxy-2-(1-methyl-1H-pyrazol-4-yl)phenyl)piperazin-1-yl)-3-azaspiro [5.5]undecan-3-yl)-2-(2,6-dioxopiperidin-3-yl)isoindoline-1,3-dione], in that order: under 100 nM, 77 nM and at least 10000 nM.
In the same order, the values of `COc1cc(N2CCC(CN3CCN(c4ccc5c(c4)CN(C4CCC(=O)NC4=O)C5=O)CC3)CC2)c(-c2cnn(C)c2)cc1Nc1ncc(Cl)c(Nc2ccc(-c3ccccc3)cc2P(C)(C)=O)n1` (stereo not shown) [Compound 105, 3-(5-(4-((1-(4-((5-chloro-4-((3-(dimethylphosphoryl)-[1,1′-biphenyl]-4-yl)amino)pyrimidin-2-yl)amino)-5-methoxy-2-(1-methyl-1H-pyrazol-4-yl)phenyl)piperidin-4-yl)methyl)piperazin-1-yl)-1-oxoisoindolin-2-yl)piperidine-2,6-dione] are under 100 nM, 58 nM and at least 10000 nM.
For the molecule `COc1cc(N2CCC(N3CCN(c4ccc(N5CCC(=O)NC5=O)cc4)CC3)CC2)c(-c2cnn(C)c2)cc1Nc1ncc(Cl)c(Nc2ccc(C3CC3)cc2P(C)(C)=O)n1` [Compound 133, 1-(4-(4-(1-(4-((5-chloro-4-((4-cyclopropyl-2-(dimethylphosphoryl)phenyl)amino)pyrimidin-2-yl)amino)-5-methoxy-2-(1-methyl-1H-pyrazol-4-yl)phenyl)piperidin-4-yl)piperazin-1-yl)phenyl)dihydropyrimidine-2,4(1H,3H)-dione], in the experiment with A431 (EGFR-WT) cells, the IC50 was at least 10000 nM.
`COc1cc(N2CCN(C[C@H]3CCN(c4ccc5c(c4)C(=O)N(C4CCC(=O)NC4=O)C5=O)C3)CC2)c(-c2cnn(C)c2)cc1Nc1ncc(Cl)c(Nc2ccc(-c3ccccc3)cc2P(C)(C)=O)n1` (stereo partly drawn) [Compound 118, 5-((R)-3-((4-(4-((5-chloro-4-((3-(dimethylphosphoryl)-[1,1′-biphenyl]-4-yl)amino)pyrimidin-2-yl)amino)-5-methoxy-2-(1-methyl-1H-pyrazol-4-yl)phenyl)piperazin-1-yl)methyl)pyrrolidin-1-yl)-2-(2,6-dioxopiperidin-3-yl)isoindoline-1,3-dione]: the IC50 in experiment [1] (read-out: IC50 (class symbol)) was under 100 nM; in experiment [1] (setting [2]), 40 nM; with A431 (EGFR-WT) cells it was at least 10000 nM.
In turn, `COc1cc(N2CCC(N3CCN(c4ccc(N5CCC(=O)NC5=O)cc4)CC3)CC2)c(-c2cnn(C)c2)cc1Nc1ncc(Cl)c(Nc2ccc(-c3ccccc3)cc2P(C)(C)=O)n1` [Compound 137, 1-(4-(4-(1-(4-((5-chloro-4-((3-(dimethylphosphoryl)-[1,1′-biphenyl]-4-yl)amino)pyrimidin-2-yl)amino)-5-methoxy-2-(1-methyl-1H-pyrazol-4-yl)phenyl)piperidin-4-yl)piperazin-1-yl)phenyl)dihydropyrimidine-2,4(1H,3H)-dione] showed an IC50 with A431 (EGFR-WT) cells of at least 10000 nM.
Molecule `COc1cc(N2CCN(c3ccc4c(c3)C(=O)N(C3CCC(=O)NC3=O)C4=O)CC2)c(-c2cnn(C)c2)cc1Nc1ncc(Cl)c(Nc2ccc(C3CC3)cc2P(C)(C)=O)n1` (stereo not shown) [Compound 167, 5-(4-(4-((5-chloro-4-((4-cyclopropyl-2-(dimethylphosphoryl)phenyl)amino)pyrimidin-2-yl)amino)-5-methoxy-2-(1-methyl-1H-pyrazol-4-yl)phenyl)piperazin-1-yl)-2-(2,6-dioxopiperidin-3-yl)isoindoline-1,3-dione] had an IC50 in the experiment on A431 (EGFR-WT) cells of at least 10000 nM.
Consider `COc1cc(N2CCC(CN3CC4CN(c5ccc6c(c5)C(=O)N(C5CCC(=O)NC5=O)C6=O)CC4C3)CC2)c(C2CC2)cc1Nc1ncc(Br)c(Nc2ccc3nccnc3c2P(C)(C)=O)n1` (stereo not shown) [Compound 34, 5-(5-((1-(4-((5-bromo-4-((5-(dimethylphosphoryl)quinoxalin-6-yl)amino)pyrimidin-2-yl)amino)-2-cyclopropyl-5-methoxyphenyl)piperidin-4-yl)methyl)hexahydropyrrolo[3,4-c]pyrrol-2(1H)-yl)-2-(2,6-dioxopiperidin-3-yl)isoindoline-1,3-dione], for which the IC50 in the experiment with A431 (EGFR-WT) cells was at least 10000 nM.
In the case of `COc1cc(N2CCC3(CCN(c4ccc5c(c4)C(=O)N(C4CCC(=O)NC4=O)C5=O)CC3)CC2)c(-c2cnn(C)c2)cc1Nc1ncc(Br)c(Nc2ccc(C3CC3)cc2P(C)(C)=O)n1` (stereo not shown) [Compound 165, 5-(9-(4-((5-bromo-4-((4-cyclopropyl-2-(dimethylphosphoryl)phenyl)amino)pyrimidin-2-yl)amino)-5-methoxy-2-(1-methyl-1H-pyrazol-4-yl)phenyl)-3,9-diazaspiro[5.5]undecan-3-yl)-2-(2,6-dioxopiperidin-3-yl)isoindoline-1,3-dione], in the experiment on A431 (EGFR-WT) cells, the IC50 was at least 10000 nM.
As to `COc1cc(N2CCN(CC3CCN(c4ccc5c(c4)C(=O)N(C4CCC(=O)NC4=O)C5=O)CC3)CC2)c(-c2cnn(C)c2)cc1Nc1ncc(Br)c(Nc2ccccc2P(C)(C)=O)n1` (stereo not shown) [Compound 127, 5-(4-((4-(4-((5-bromo-4-((2-(dimethylphosphoryl)phenyl)amino)pyrimidin-2-yl)amino)-5-methoxy-2-(1-methyl-1H-pyrazol-4-yl)phenyl)piperazin-1-yl)methyl)piperidin-1-yl)-2-(2,6-dioxopiperidin-3-yl)isoindoline-1,3-dione], the figures for the IC50 in experiment [1] (read-out: IC50 (class symbol)) and in experiment [1] (setting [2]) were under 100 nM and 19 nM, respectively.
For `COc1cc(N2CCC(CN3CCC4(CC3)CCN(c3ccc(C(=O)NC5CCC(=O)NC5=O)nc3)CC4)CC2)c(-c2cnn(C)c2)cc1Nc1ncc(Cl)c(Nc2ccc(-c3ccccc3)cc2P(C)(C)=O)n1` (stereo not shown) [Compound 70, 5-(9-((1-(4-((5-chloro-4-((3-(dimethylphosphoryl)-[1,1′-biphenyl]-4-yl)amino)pyrimidin-2-yl)amino)-5-methoxy-2-(1-methyl-1H-pyrazol-4-yl)phenyl)piperidin-4-yl)methyl)-3,9-diazaspiro[5.5]undecan-3-yl)-N-(2,6-dioxopiperidin-3-yl)picolinamide], in that order: under 100 nM and 39 nM.
In the case of `COc1cc(N2CCN(C3CN(c4ccc5c(c4)C(=O)N(C4CCC(=O)NC4=O)C5=O)C3)CC2)c(-c2cnn(C)c2)cc1Nc1ncc(Br)c(Nc2ccccc2P(C)(C)=O)n1` (stereo not shown) [Compound 151, 5-(3-(4-(4-((5-bromo-4-((2-(dimethylphosphoryl)phenyl)amino)pyrimidin-2-yl)amino)-5-methoxy-2-(1-methyl-1H-pyrazol-4-yl)phenyl)piperazin-1-yl)azetidin-1-yl)-2-(2,6-dioxopiperidin-3-yl)isoindoline-1,3-dione], the IC50 in experiment [1] (read-out: IC50 (class symbol)) was under 100 nM; in experiment [1] (setting [2]), 35 nM.
As to `COc1cc(N2CCC3(CCN(CC4CCN(c5cc6c(cc5F)C(=O)N(C5CCC(=O)NC5=O)C6=O)CC4)CC3)CC2)c(-c2cnn(C)c2)cc1Nc1ncc(Cl)c(Nc2ccc3nccnc3c2P(C)(C)=O)n1` (stereo not shown) [Compound 27, 5-(4-((9-(4-((5-chloro-4-((5-(dimethylphosphoryl)quinoxalin-6-yl)amino)pyrimidin-2-yl)amino)-5-methoxy-2-(1-methyl-1H-pyrazol-4-yl)phenyl)-3,9-diazaspiro[5.5]undecan-3-yl)methyl)piperidin-1-yl)-2-(2,6-dioxopiperidin-3-yl)-6-fluoroisoindoline-1,3-dione], the IC50 in experiment [1] (read-out: IC50 (class symbol)) was under 100 nM; in experiment [1] (setting [2]) it was 20 nM.

What is called IC50 is the concentration that inhibits the measured activity by half.

The record behind these values is patent US20240269298A1, “PHOSPHONYL DERIVATIVE, AND COMPOSITION AND PHARMACEUTICAL APPLICATION THEREOF” (XIZANG HAISCO PHARMACEUTICAL CO., LTD., priority 2021, published 2024).
